What all share (assay): DTP human tumour cell line panel, 48 h
The test system of experiment [1] is HCT-116.
Experiment [2] deals with COLO 205.
Experiment [3] deals with RXF 393.
In experiment [4] the test system is HCT-15.
The test system of experiment [5] is U-251.
Experiment [6] has as its system 786-0.
Experiment [7] has as its system SW-620.
Experiment [8] has as its system SNB-75.
For experiment [9], the system named is CCRF-CEM.
In experiment [10] the test system is UO-31.
The test system of experiment [11] is HOP-92.
The subject of experiment [12] is IGROV-1.
Experiment [13] relates to OVCAR-4.
The test system of experiment [14] is KM12.
Experiment [15] relates to NCI-H522.

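1) Cells in 96-well plates. 2) Compound, 48 h, 5 concentrations. 3) Linear interpolation between surrounding doses. 4) Unreached endpoint = highest concentration. Here, GI50 denotes the concentration required for 50% inhibition of growth.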 Calls of active or inactive are those of the source. Cut-off read from the data, not from the text of the source: active = GI50 up to about 1.1 µM and inactive = higher.

By GI50 is commonly meant the concentration at which growth is held to half of that of the control. For `Clc1ccc(Nc2nc3ccccc3nc2-c2cccs2)cc1Cl`, the GI50 is 23.4 µM (inactive) in [1]; 26.1 µM (inactive) in experiment [2]; 22.6 µM (inactive) in [3]; 10.3 µM in experiment [4]; > 10 µM (inactive) in experiment [5]; 35.7 µM (inactive) in [6]. For the same compound, the GI50 in experiment [7] was 85.7 µM (inactive); in [8], 84.9 µM (inactive); in [9] it was 27.2 µM (inactive); in [10], 34.8 µM (inactive); in [11], 19.7 µM (inactive).

On to `CCOC(=O)C1(CC)CCCCC(=O)N1` (centres undefined), for which the GI50 in experiment [2] is > 100 µM (inactive); in experiment [3], > 100 µM (inactive); in experiment [4] it was above 100 µM; in experiment [12], > 100 µM (inactive); in [5], > 100 µM (inactive); in experiment [6] it was > 100 µM (inactive). The GI50 in [7], in experiment [9], in [10], in experiment [13] and in experiment [11] was > 100 µM (inactive) throughout.

Take `CS(=O)(=O)OCCN1CCN(C(=O)c2ccc(Cl)c3c(Nc4ccc(S(=O)(=O)N=C(N)N)cc4)c4ccccc4nc23)CC1`: the GI50 in experiment [1] is > 100 µM (inactive); in experiment [2], > 100 µM (inactive); in experiment [3], > 100 µM (inactive); in experiment [4] it was above 100 µM; in experiment [12], > 100 µM (inactive); in [5] it was > 100 µM (inactive). The GI50 in [6], in [8], in experiment [9], in [14], in [10] and in experiment [13] was > 100 µM (inactive) each time. Further, the GI50 in [11] was > 100 µM (inactive).

For the compound `COc1ccc(C(=O)O[C@H]2[C@@H]3C=CO[C@@H](OC4OC(CO)C(O)C(O)C4O)[C@@H]3[C@@]3(CO)O[C@@H]23)cc1O` (some centres undefined), the GI50 in [2], in experiment [3], in experiment [12], in experiment [5], in experiment [6] and in experiment [7] was > 100 µM (inactive) in each case. The GI50 in experiment [8], in experiment [9], in experiment [14], in [10], in experiment [15] and in experiment [13] was > 100 µM (inactive) throughout. Also, the GI50 in experiment [11] was > 100 µM (inactive).

Regarding `C=Cc1ccc(C)[n+](C[Si](C)(C)O[Si](C)(C)C)c1`, the GI50 in experiment [1] was > 100 µM (inactive); in experiment [2], > 100 µM (inactive); in experiment [4], above 100 µM; in experiment [12], > 100 µM (inactive); in [5], > 100 µM (inactive); in experiment [6], > 100 µM (inactive). Also, the GI50 in experiment [7], in [8], in experiment [9], in experiment [14], in [10] and in [15] was > 100 µM (inactive) in each case. Moreover, the GI50 in experiment [13] is 42.3 µM (inactive).

Turning to `CCn1c2ccccc2c2ccc3c(c21)C(=O)C=CC3=O`, the GI50 in experiment [1] is 4.47 µM (inactive); in experiment [2] it was 9.55 µM (inactive); in experiment [4] it was 10.4 µM; in [12], 1.39 µM (inactive); in [5], 15.9 µM (inactive); in experiment [6], 1.89 µM (inactive). Moreover, the GI50 was 29.6 µM (inactive) in experiment [8]; 0.375 µM (active) in experiment [9]; 14.4 µM (inactive) in [14]; 10 µM (inactive) in [10]; 2.58 µM (inactive) in experiment [15]; 4.06 µM (inactive) in [13]. Moreover, the GI50 in [11] is 12.2 µM (inactive).

As to `CC1(c2ccccc2)CC(c2cccc([N+](=O)[O-])c2)=NO1` (centres undefined), the GI50 is > 100 µM (inactive) in [1]; > 100 µM (inactive) in [2]; above 100 µM in experiment [4]; > 100 µM (inactive) in [12]; > 100 µM (inactive) in experiment [5]; > 100 µM (inactive) in experiment [6]. In addition, the GI50 in experiment [7] was > 100 µM (inactive); in experiment [8], > 100 µM (inactive); in [14] it was > 100 µM (inactive); in experiment [10], 82.8 µM (inactive); in [15], 30.1 µM (inactive); in experiment [13], > 100 µM (inactive). The GI50 in experiment [11] was > 100 µM (inactive).

Consider `CCN(CC)Cc1cc(Nc2ccnc3ccc4nn(C)nc4c23)ccc1O`, for which the GI50 was 4.79 µM (inactive) in experiment [1]; 5.02 µM (inactive) in [2]; 9.25 µM (inactive) in experiment [3]; 16.7 µM in experiment [4]; 25.2 µM (inactive) in experiment [12]; 15.3 µM (inactive) in experiment [5]. Moreover, the GI50 in experiment [6] is 11.8 µM (inactive); in experiment [7] it was 5.55 µM (inactive); in experiment [8], 12.3 µM (inactive); in experiment [9], > 100 µM (inactive); in [14], 10.5 µM (inactive); in [10], 11.9 µM (inactive). For the same compound, the GI50 in [15] was 9.29 µM (inactive); in experiment [13] it was 10.4 µM (inactive).

Take `COC(=O)c1nc(N)nc(O)c1CCCCCc1c(O)nc(N)nc1C(=O)OC`: the GI50 was > 50 µM (inactive) in [2]; > 50 µM (inactive) in experiment [3]; above 50 µM in [4]; > 50 µM (inactive) in experiment [12]; > 50 µM (inactive) in experiment [5]; > 50 µM (inactive) in experiment [6]. Also, the GI50 in experiment [7], in experiment [8], in experiment [9], in experiment [14], in experiment [10] and in [15] was > 50 µM (inactive) in each case. The GI50 in [13] and in experiment [11] was > 50 µM (inactive) in each case.

Consider `C=CCC1C(=O)CC2(C)C(CC=C)C(=O)CC12C` (centres undefined), for which the GI50 in [1] is > 100 µM (inactive); in experiment [2], > 100 µM (inactive); in [4], above 100 µM; in [12] it was > 100 µM (inactive); in [5] it was > 100 µM (inactive); in [6] it was > 100 µM (inactive). Moreover, the GI50 in experiment [7], in experiment [8], in experiment [9], in experiment [14], in experiment [10] and in experiment [15] was > 100 µM (inactive) throughout. Moreover, the GI50 in experiment [13] and in [11] was > 100 µM (inactive) each time.

With `Cc1c(O)c(=O)ccn1C1OC(CO)C(O)C1O` (centres undefined), the GI50 was 62.1 µM (inactive) in [1]; > 100 µM (inactive) in experiment [2]; > 100 µM (inactive) in [3]; 68.1 µM in experiment [4]; > 100 µM (inactive) in experiment [5]; 85.9 µM (inactive) in [6]. The GI50 in experiment [7] is > 100 µM (inactive); in experiment [8], > 100 µM (inactive); in experiment [9] it was 39.5 µM (inactive); in experiment [14], > 100 µM (inactive); in [10] it was > 100 µM (inactive); in experiment [15] it was > 100 µM (inactive). Further, the GI50 in experiment [13] and in experiment [11] was > 100 µM (inactive) in each case.

`Cn1c2c(c3ccccc31)CCN(CCN1CCN(c3cccc(Cl)c3)CC1)C2=O`: the GI50 is 40.5 µM (inactive) in [1]; 40.7 µM (inactive) in experiment [2]; 67.1 µM (inactive) in experiment [3]; 25.8 µM in experiment [4]; > 100 µM (inactive) in [12]; > 100 µM (inactive) in experiment [5]. Moreover, the GI50 in experiment [6] is > 100 µM (inactive); in experiment [7], 63.4 µM (inactive); in experiment [9], > 100 µM (inactive); in experiment [10], 30.3 µM (inactive); in [15], 47.5 µM (inactive); in experiment [11], 19.9 µM (inactive).

As to `COc1ccc2ccnc(Cc3ccc(OCc4ccccc4)c(OC)c3)c2c1`, the GI50 in experiment [1] is 16.1 µM (inactive); in experiment [4], 15.2 µM; in experiment [5] it was 20.9 µM (inactive); in experiment [6] it was 19.2 µM (inactive); in experiment [7], 33.5 µM (inactive); in experiment [8], 27 µM (inactive). Further, the GI50 in [9] is 27.4 µM (inactive); in experiment [14] it was 18 µM (inactive); in [10], 6 µM (inactive); in experiment [15], 22.8 µM (inactive); in [13], 14.2 µM (inactive).

Turning to `COc1cc(C(CC(OC)OC)=C(C#N)C#N)cc(OC)c1OC`, the GI50 in experiment [1] was 18.2 µM (inactive); in experiment [2] it was 9.35 µM (inactive); in [3], 25.2 µM (inactive); in experiment [4], 16.9 µM; in [12], 39.4 µM (inactive); in experiment [5], 13.3 µM (inactive). The GI50 in experiment [6] is 21.4 µM (inactive); in experiment [7], 29.7 µM (inactive); in experiment [8], 22.8 µM (inactive); in [9], 5.36 µM (inactive); in experiment [14] it was 18.7 µM (inactive); in [10] it was 28.1 µM (inactive). Further, the values for the GI50 in experiment [15] and in experiment [11] were 13.9 µM (inactive) and 17.1 µM (inactive), respectively.

Turning to `c1ccc2c(NCCCCCCNc3cccc4ccccc34)cccc2c1`, the GI50 in experiment [1] was > 100 µM (inactive); in experiment [2] it was > 100 µM (inactive); in experiment [4] it was above 100 µM; in experiment [12] it was > 100 µM (inactive); in experiment [5] it was > 100 µM (inactive); in experiment [6] it was > 100 µM (inactive). The GI50 in experiment [7] is 74.5 µM (inactive); in [8], 2.77 µM (inactive); in experiment [9], 38.8 µM (inactive); in experiment [14] it was > 100 µM (inactive); in experiment [10], 98.2 µM (inactive); in experiment [15], > 100 µM (inactive). Also, the results for the GI50 in experiment [13] and in experiment [11] were 66.1 µM (inactive) and 50.7 µM (inactive), respectively.

The values are drawn from ChEMBL document CHEMBL1201862, “PubChem BioAssay data set” (2004).
